Paper PMC9919735, “Cupressus arizonica Greene: Phytochemical Profile and Cosmeceutical and Dermatological Properties of Its Leaf Extracts” (Molecules, 2023)

What was measured:
hyaluronidase enzyme = experiment: hyaluronic acid degradation, DMAB colorimetric, absorbance […] nm; assay type: biochemical; conditions: hyaluronic acid 1 mg/mL in 0.1 M acetate pH 3.5, CaCl2; positive control
[1] = target: T1, Collagenase enzyme, from Clostridium histolyticum (ChC); experiment: FALGPA hydrolysis, absorbance […] nm; assay type: biochemical, Hathewaya histolytica; conditions: Tricine buffer 50 mM, 400 mM NaCl, 10 mM CaCl2, pH 7.5, 15 min preincubation; positive control
T1 construct: gene colG; native enzyme preparation, ColG / ColH not distinguished

Parameters IC50 (μg/mL) / Hyaluronidase (hyaluronidase enzyme) | SMILES | Parameters IC50 (μg/mL) / Collagenase [1]
14.46 ± 0.6 µg/mL | O=c1cc(CO)occ1O [Kojic acid] | –
– | O=c1c(O)c(-c2ccc(O)c(O)c2)oc2cc(O)cc(O)c12 [Quercetin] | 24.83 ± 1.8 µg/mL
